Data: US8772266B2, “Fungicide pyrazole carboxamides derivates” (Bayer Cropscience AG, priority 2009, dated 2014)

How the values were obtained:
[1] = logP by HPLC on reversed-phase column (EEC Directive 79/831 Annex V.A8); details: for logP: HPLC, reversed-phase column (C 18), 40° C., 0.1% aqueous formic acid and acetonitrile, linear gradient 10% to 90% acetonitrile
[2] = test system: Tetranychus urticae; test: Spray application test on Tetranychus urticae; type: in vivo; details: 500 g of active ingredient/ha; after 6 days
Method: Solvent: 78.0 parts by weight acetone • 1.5 parts by weight dimethylformamide
Emulsifier: 0.5 parts by weight alkylarylpolyglcolether
French beans (Phaseolus vulgaris) which are heavily infested with all stages of the two spotted spidermite (Tetranychus urticae), are sprayed with a preparation of the active ingredient at the desired concentration.
After 6 days, mortality in % is determined. 100% means that all spider mites have been killed and 0% means that none of the spider mites have been killed.

[3] = test system: Fusarium nivale; test: In vivo curative test on Fusarium nivale (wheat); details: 500 ppm of active ingredient, evaluated 8 days after inoculation
[4] = test system: Sphaerotheca fuliginea; test: In vivo preventive test on Sphaerotheca fuliginea (cucumber), Example G; details: 10 ppm of active ingredient, evaluated 7 days after inoculation
Source text: After the spray coating has dried on, the plants are inoculated with an aqueous spore suspension of Sphaerotheca fuliginea.

[5] = test system: Aspergillus parasiticus; test: microbe, parasite or virus in culture; type: cell-based; details: 168 h, 50 μM of active ingredient, 7 days, fluorescence, read-out: inhibition of aflatoxines production
[6] = test system: Meloidogyne incognita; test: Test on Meloidogyne incognita; type: in vivo; details: 20 ppm of active ingredient; after 14 days
Method: Solvent: 80.0 parts by weight of acetone
Vessels are filled with sand, a solution of the active ingredient, a suspension containing eggs and larvae of Meloidogyne incognita and salad seeds. The salad seeds germinate and the seedlings grow. Galls develop in the roots.
After 14 days the nematicidal activity is determined on the basis of the percentage of gall formation. 100% means that no galls were found; 0% means that the number of galls found on the roots of the treated plants was equal to that in untreated control plants.

[7] = test system: Puccinia triticina; test: In vivo curative test on Puccinia triticina (wheat); details: 500 ppm of active ingredient, evaluated 8 days after inoculation
[8] = test system: Phakopsora pachyrhizi; test: In vivo preventive test on Phakopsora pachyrhizi (soybean rust); details: 50 ppm of active ingredient, evaluated 11 days after inoculation
Method: Solvent: 28.5 parts by weight of acetone
Emulsifier: 1.5 parts by weight of polyoxyethylene alkyl phenyl ether
One day after spraying, the plants are inoculated with an aqueous spore suspension of the causal agent of soybean rust (Phakopsora pachyrhizi).
The test is evaluated 11 days after the inoculation.

[9] = test system: Fusarium proliferatum; test: Inhibition of Fumonisin FB1 produced by Fusarium proliferatum; type: cell-based; details: 120 h, read-out: inhibition of Fumonisin FB1 production

Row | Structure (SMILES) | logP [1] | mortality in % [2] [%] | disease control [3] | disease control [4] [%] | further results
1 | CC(c1cc(Cl)cc(Cl)c1)N(C(=O)c1c(C(F)F)nn(C)c1F)C1CC1 (racemic) [Example 40] | 4.04 | 80 | 100% |  | 
2 | Cn1nc(C(F)F)c(C(=O)N(Cc2cc(Cl)ccc2C(F)(F)F)C2CC2)c1F [Example 1] | 3.8 | 80 | 100% | 100 | 
3 | Cn1nc(C(F)F)c(C(=O)N(Cc2ccccc2[Si](C)(C)C)C2CC2)c1F [Example 3, N-cyclopropyl-3-(difluoromethyl)-5-fluoro-1-methyl-N-[2-(trimethylsilyl)benzyl]-1H-pyrazole-4-carboxamide] |  |  |  |  | chromatographic logP [1]: 4.36; inhibition at 50 µM [5]: > 80%
4 | Cn1nc(C(F)F)c(C(=O)N(Cc2c(C(F)(F)F)ccc(Cl)c2F)C2CC2)c1F [Example 5] | 3.62 | 80 | 100% | 100 | 
5 | CC(C)c1ccccc1CN(C(=O)c1c(C(F)F)nn(C)c1F)C1CC1 [Example 6] | 3.35 | 80 | 100% | 100 | nematicidal activity (% reduction of galls vs untreated control) [6]: 80%
6 | Cn1nc(C(F)F)c(C(=O)N(Cc2ccccc2SC(F)(F)F)C2CC2)c1F [Example 30] | 3.74 | 80 | 100% |  | 
7 | Cn1nc(C(F)F)c(C(=S)N(Cc2ccccc2[Si](C)(C)C)C2CC2)c1F [Example 38, N-cyclopropyl-3-(difluoromethyl)-5-fluoro-1-methyl-N-[2-(trimethylsilyl)benzyl]-1H-pyrazole-4-carbothioamide] |  |  |  | 100 | chromatographic logP [1]: 4.94; inhibition at 50 µM [5]: > 80%
8 | Cn1nc(C(F)F)c(C(=O)N(Cc2cc(Cl)ccc2C2CC2)C2CC2)c1F [Example 41] | 3.87 |  | 100% | 100 | 
9 | CC(C)c1ccccc1C(C)N(C(=O)c1c(C(F)F)nn(C)c1F)C1CC1 (stereo not shown) [Example 80] | 3.99 |  | 100% | 100 | 
10 | CCc1ccccc1C(C)N(C(=O)c1c(C(F)F)nn(C)c1F)C1CC1 (stereo not shown) [Example 81] | 3.69 |  | 100% | 100 | 
11 | CC(c1cccc2ccccc12)N(C(=O)c1c(C(F)F)nn(C)c1F)C1CC1 (stereo not shown) [N-cyclopropyl-3-(difluoromethyl)-5-fluoro-1-methyl-N-[1-(1-naphthyl)ethyl]-1H-pyrazole-4-carboxamide, reference compound] |  |  | less than 95% |  | disease control [7]: less than 85%
12 | Cc1nn(C)c(F)c1C(=S)N(Cc1ccccc1[Si](C)(C)C)C1CC1 [N-cyclopropyl-5-fluoro-1,3-dimethyl-N-[2-(trimethylsilyl)benzyl]-1H-pyrazole-4-carbothioamide] |  |  |  |  | disease control [8]: less than 85%
13 | Cn1nc(C(F)F)c(C(=O)N(Cc2ncc(C(F)(F)F)cc2Cl)C2CC2)c1F [N-{[3-chloro-5-(trifluoromethyl)pyridin-2-yl]methyl}-N-cyclopropyl-3-(difluoromethyl)-5-fluoro-1-methyl-1H-pyrazole-4-carboxamide] |  |  |  |  | inhibition at 50 µM [9]: < 55%
